{"source": "patent US20230405028A1", "about": "(priority 2020, published 2023)", "key": {"COX-2": {"test_system": "COX-2", "assay": "COX-2 in A-172 cells", "format": "cell-based", "settings": "5 μM psilocybin + 25 μM eugenol vs 5 μM psilocybin alone, eugenol alone 25 μM", "source_text": "(§1) This experiment was designed to explore the synergistic interaction of 5HT2A agonist and a TRP agonists on receptors in the brain that are associated with depression and/or inflammation. […] The development of an inflammatory microenvironment is considered important to the initiation and progression of glioblastoma; however, therapeutic approaches to target inflammation have previously been limited. The abnormal function of IL-6 and IL-8 has been predicted to lead to glioblastoma.\n(§2) Thus, unlike the experiments on HSIEC cells described above, no inflammatory treatment was applied to the A-172 cells. The A-172 cells were grown to […] confluence on T-25 flasks to allow a 96-hour duration of exposure of the cells to the compounds of interest"}, "A-172 glioblastoma cells": {"test_system": "A-172 glioblastoma cells", "assay": "MTT cell viability assay in A-172 cells"}, "[1]": {"test_system": "Human primary small intestinal epithelial cells (HSIEC)"}, "BDNF": {"test_system": "BDNF", "assay": "BDNF in A-172 cells", "format": "cell-based", "settings": "escalating doses", "source_text": "as §1, §2"}}, "note": "Like-named read-outs stand apart in the source and are kept apart here."}
{"smiles": "C=CCc1ccc(O)c(OC)c1", "note": "[eugenol]", "values": [{"measurement": "effect on COX-2", "setting": "COX-2", "result": "increase"}, {"measurement": "Cellular Metabolic Activity", "setting": "A-172 glioblastoma cells; 10 μM, 24 h", "result": 0.137}, {"measurement": "Cellular Metabolic Activity", "setting": "A-172 glioblastoma cells; 10 μM, 48 h", "result": 0.234}, {"measurement": "Cellular Metabolic Activity", "setting": "A-172 glioblastoma cells; 10 μM, 72 h", "result": 0.329}, {"measurement": "Cellular Metabolic Activity", "setting": "A-172 glioblastoma cells; 10 μM, 96 h", "result": 0.533}, {"measurement": "Cellular Metabolic Activity", "setting": "A-172 glioblastoma cells; 10 μM, time 0", "result": 0.084}, {"measurement": "Cellular Metabolic Activity", "setting": "A-172 glioblastoma cells; 25 μM, 24 h", "result": 0.153}, {"measurement": "Cellular Metabolic Activity", "setting": "A-172 glioblastoma cells; 25 μM, 48 h", "result": 0.266}, {"measurement": "Cellular Metabolic Activity", "setting": "A-172 glioblastoma cells; 25 μM, 72 h", "result": 0.318}, {"measurement": "Cellular Metabolic Activity", "setting": "A-172 glioblastoma cells; 25 μM, 96 h", "result": 0.557}, {"measurement": "Cellular Metabolic Activity", "setting": "A-172 glioblastoma cells; 25 μM, time 0", "result": 0.083}, {"measurement": "Cellular Metabolic Activity", "setting": "A-172 glioblastoma cells; 50 μM, 24 h", "result": 0.146}, {"measurement": "Cellular Metabolic Activity", "setting": "A-172 glioblastoma cells; 50 μM, 48 h", "result": 0.229}, {"measurement": "Cellular Metabolic Activity", "setting": "A-172 glioblastoma cells; 50 μM, 72 h", "result": 0.327}, {"measurement": "Cellular Metabolic Activity", "setting": "A-172 glioblastoma cells; 50 μM, 96 h", "result": 0.542}, {"measurement": "Cellular Metabolic Activity", "setting": "A-172 glioblastoma cells; 50 μM, time 0", "result": 0.086}, {"measurement": "Cellular Metabolic Activity", "setting": "A-172 glioblastoma cells; 100 μM, 24 h", "result": 0.170}, {"measurement": "Cellular Metabolic Activity", "setting": "A-172 glioblastoma cells; 100 μM, 48 h", "result": 0.230}, {"measurement": "Cellular Metabolic Activity", "setting": "A-172 glioblastoma cells; 100 μM, 72 h", "result": 0.322}, {"measurement": "Cellular Metabolic Activity", "setting": "A-172 glioblastoma cells; 100 μM, 96 h", "result": 0.516}, {"measurement": "Cellular Metabolic Activity", "setting": "A-172 glioblastoma cells; 100 μM, time 0", "result": 0.082}, {"measurement": "Cellular Metabolic Activity", "setting": "A-172 glioblastoma cells; 200 μM, 24 h", "result": 0.170}, {"measurement": "Cellular Metabolic Activity", "setting": "A-172 glioblastoma cells; 200 μM, 48 h", "result": 0.224}, {"measurement": "Cellular Metabolic Activity", "setting": "A-172 glioblastoma cells; 200 μM, 72 h", "result": 0.313}, {"measurement": "Cellular Metabolic Activity", "setting": "A-172 glioblastoma cells; 200 μM, 96 h", "result": 0.431}, {"measurement": "Cellular Metabolic Activity", "setting": "A-172 glioblastoma cells; 200 μM, time 0", "result": 0.089}, {"measurement": "Cellular Metabolic Activity", "setting": "A-172 glioblastoma cells; 400 μM, 24 h", "result": 0.173}, {"measurement": "Cellular Metabolic Activity", "setting": "A-172 glioblastoma cells; 400 μM, 48 h", "result": 0.208}, {"measurement": "Cellular Metabolic Activity", "setting": "A-172 glioblastoma cells; 400 μM, 72 h", "result": 0.272}, {"measurement": "Cellular Metabolic Activity", "setting": "A-172 glioblastoma cells; 400 μM, 96 h", "result": 0.422}, {"measurement": "Cellular Metabolic Activity", "setting": "A-172 glioblastoma cells; 400 μM, time 0", "result": 0.088}, {"measurement": "effect on cell growth (MTT, words)", "setting": "A-172 glioblastoma cells; A-172, psilocybin 80 μM", "result": "slight inhibitory effect"}, {"measurement": "effect on cell growth / cellular metabolic activity (MTT, words)", "setting": "[1]", "result": "slight inhibitory effect on cell growth"}, {"measurement": "Cellular Metabolic Activity", "setting": "[1]; 10 μM, 24 h", "result": 0.064}, {"measurement": "Cellular Metabolic Activity", "setting": "[1]; 10 μM, 48 h", "result": 0.168}, {"measurement": "Cellular Metabolic Activity", "setting": "[1]; 10 μM, 72 h", "result": 0.346}, {"measurement": "Cellular Metabolic Activity", "setting": "[1]; 10 μM, 96 h", "result": 0.632}, {"measurement": "Cellular Metabolic Activity", "setting": "[1]; 10 μM, time 0", "result": 0.047}, {"measurement": "Cellular Metabolic Activity", "setting": "[1]; 50 μM, 24 h", "result": 0.079}, {"measurement": "Cellular Metabolic Activity", "setting": "[1]; 50 μM, 48 h", "result": 0.145}, {"measurement": "Cellular Metabolic Activity", "setting": "[1]; 50 μM, 72 h", "result": 0.337}, {"measurement": "Cellular Metabolic Activity", "setting": "[1]; 50 μM, 96 h", "result": 0.647}, {"measurement": "Cellular Metabolic Activity", "setting": "[1]; 50 μM, time 0", "result": 0.038}, {"measurement": "Cellular Metabolic Activity", "setting": "[1]; 100 μM, 24 h", "result": 0.075}, {"measurement": "Cellular Metabolic Activity", "setting": "[1]; 100 μM, 48 h", "result": 0.136}, {"measurement": "Cellular Metabolic Activity", "setting": "[1]; 100 μM, 72 h", "result": 0.346}, {"measurement": "Cellular Metabolic Activity", "setting": "[1]; 100 μM, 96 h", "result": 0.662}, {"measurement": "Cellular Metabolic Activity", "setting": "[1]; 100 μM, time 0", "result": 0.038}, {"measurement": "Cellular Metabolic Activity", "setting": "[1]; 200 μM, 24 h", "result": 0.064}, {"measurement": "Cellular Metabolic Activity", "setting": "[1]; 200 μM, 48 h", "result": 0.111}, {"measurement": "Cellular Metabolic Activity", "setting": "[1]; 200 μM, 72 h", "result": 0.296}, {"measurement": "Cellular Metabolic Activity", "setting": "[1]; 200 μM, 96 h", "result": 0.652}, {"measurement": "Cellular Metabolic Activity", "setting": "[1]; 200 μM, time 0", "result": 0.041}, {"measurement": "Cellular Metabolic Activity", "setting": "[1]; 400 μM, 24 h", "result": 0.059}, {"measurement": "Cellular Metabolic Activity", "setting": "[1]; 400 μM, 48 h", "result": 0.128}, {"measurement": "Cellular Metabolic Activity", "setting": "[1]; 400 μM, 72 h", "result": 0.242}, {"measurement": "Cellular Metabolic Activity", "setting": "[1]; 400 μM, 96 h", "result": 0.549}, {"measurement": "Cellular Metabolic Activity", "setting": "[1]; 400 μM, time 0", "result": 0.042}, {"measurement": "Cellular Metabolic Activity", "setting": "[1]; 800 μM, 24 h", "result": 0.053}, {"measurement": "Cellular Metabolic Activity", "setting": "[1]; 800 μM, 48 h", "result": 0.091}, {"measurement": "Cellular Metabolic Activity", "setting": "[1]; 800 μM, 96 h", "result": 0.268}, {"measurement": "Cellular Metabolic Activity", "setting": "[1]; 800 μM, time 0", "result": 0.042}, {"measurement": "dose resulting in the greatest increase in BDNF", "setting": "BDNF", "result": 100, "unit": "µM"}]}
